Where “and” joins values, the source holds several entries; their conditions need not be identical. Equal values may be shown once. Read-outs that look alike come from different tables or passages of the source.
Tested on: C. elegans
[1] = Table S2, C. elegans SS assay, 110 μM, 0 h, averages of 4 data points
[2] = Table S2, C. elegans SS assay, 110 μM, 24 h, averages of 4 data points

SMILES	Percentage of motility inhibition 0 h [1]	Percentage of motility inhibition 24 h [2]	Percentage of motility inhibition 0 h (110 µM)	Percentage of motility inhibition 24 h (110 µM)
CC(C)C[C@H]1C(=O)O[C@H](Cc2ccc(N3CCOCC3)cc2)C(=O)N(C)[C@@H](CC(C)C)C(=O)O[C@H](C)C(=O)N(C)[C@@H](CC(C)C)C(=O)O[C@H](Cc2ccc(N3CCOCC3)cc2)C(=O)N(C)[C@@H](CC(C)C)C(=O)O[C@H](C)C(=O)N1C [Emodepside]	69%	47%	–	–
CCn1cc(C(=O)O)c(=O)c2cc(F)c(N3CCNCC3)nc21 [Enoxacin (hydrate)]	17%	0%	–	–
CS/C=C/C(=O)NCCO[C@@H]1O[C@H](CO)[C@@H](O)[C@H](O)[C@H]1O [Entadamide‐A‐β‐D‐glucopyranoside]	24%	13%	–	–
C=C1[C@H](CO)[C@@H](O)C[C@@H]1n1cnc2c(=O)[nH]c(N)nc21.O [Entecavir (monohydrate)]	18%	3%	–	–
COc1cc2c(cc1OC)-c1cc3ccc4c(c3c[n+]1CC2)OCO4.[Cl-] [Epiberberine (chloride)]	22%	8%	–	–
C=CC1CNC(=S)O1 (centres unmarked) [Epigoitrin]	6%	0%	–	–
COc1ccc(-c2oc3c(CC=C(C)C)c(O[C@@H]4O[C@H](CO)[C@@H](O)[C@H](O)[C@H]4O)cc(O)c3c(=O)c2O[C@@H]2O[C@@H](C)[C@H](O)[C@@H](O[C@@H]3O[C@H](CO)[C@@H](O)[C@H](O)[C@H]3O)[C@H]2O)cc1 [Epimedin A1]	6%	5%	–	–
COc1ccc(-c2oc3c(CC=C(C)C)c(O[C@@H]4O[C@H](CO)[C@@H](O)[C@H](O)[C@H]4O)cc(O)c3c(=O)c2O[C@@H]2O[C@@H](C)[C@H](O)[C@@H](O)[C@H]2O[C@@H]2OC[C@@H](O)[C@H](O)[C@H]2O)cc1 [Epimedin B]	15%	32%	–	–
COc1ccc(-c2oc3c(CC=C(C)C)c(O[C@@H]4O[C@H](CO)[C@@H](O)[C@H](O)[C@H]4O)cc(O)c3c(=O)c2O[C@@H]2O[C@@H](C)[C@H](O)[C@@H](O)[C@H]2O[C@@H]2O[C@@H](C)[C@H](O)[C@@H](O)[C@H]2O)cc1 [Epmedin C]	0%	0%	–	–
C=C1C(=O)O[C@H]2[C@H]1CC[C@]1(C)O[C@@]13CC[C@@](C)(O)[C@H]23 [Epoxymicheliolide]	16%	24%	–	–
C[N+](C)(C)[C@@H](Cc1c[nH]c(=S)[nH]1)C(=O)[O-] [Ergothioneine]	16%	0%	–	–
O=C1C[C@@H](c2ccc(O)c(O)c2)Oc2cc(O[C@@H]3O[C@H](CO)[C@@H](O)[C@H](O)[C@H]3O)cc(O)c21 [Eriodictyol‐7‐O‐glucoside]	11%	4%	–	–
C[C@@H](O)[C@H]1C(=O)N2C(C(=O)[O-])=C(S[C@@H]3CN[C@H](C(=O)Nc4cccc(C(=O)O)c4)C3)[C@H](C)[C@H]12.[Na+] [Ertapenem sodium]	0%	0%	–	–
COC(=O)[C@@]1(C)CC[C@]2(C(=O)O)CC[C@]3(C)C(=CC[C@@H]4[C@@]5(C)C[C@H](O)[C@H](O[C@@H]6OC[C@@H](O[C@@H]7O[C@H](CO)[C@@H](O)[C@H](O)[C@H]7O)[C@H](O)[C@H]6O)[C@@](C)(CO)[C@@H]5CC[C@]43C)[C@@H]2C1 [Esculentoside A]	17%	3%	–	–
COC(=O)[C@]1(C)CC[C@]2(C(=O)O[C@@H]3O[C@H](CO)[C@@H](O)[C@H](O)[C@H]3O)CC[C@]3(C)C(=CC[C@@H]4[C@@]5(C)C[C@H](O)[C@H](O[C@@H]6OC[C@@H](O[C@@H]7O[C@H](CO)[C@@H](O)[C@H](O)[C@H]7O)[C@H](O)[C@H]6O)[C@@](C)(CO)C5CC[C@]43C)[C@H]2C1 (some centres unmarked) [Esculentoside H]	0%	17%	–	–
CC[C@@H](CO)NCCN[C@@H](CC)CO.Cl.Cl [Ethambutol (dihydrochloride)]	26%	6%	–	–
CCOC1c2c(ccc3c2OCO3)-c2ccc3cc4c(cc3c2N1C)OCO4 (centres unmarked) [Ethoxysanguinarine]	0%	31%	–	–
C=C1C(=O)O[C@@H]2/C=C(\C)[C@@H](OC(C)=O)C/C=C(\COC(C)=O)C[C@@H](OC(=O)/C(C)=C/CO)[C@@H]12 [Eupalinolide A]	–	–	11%	38%
C=C1C(=O)O[C@@H]2/C=C(\C)[C@@H](OC(C)=O)C/C=C(\COC(C)=O)C[C@@H](OC(=O)/C(C)=C/CO)[C@@H]12 [Eupalinolide B]	–	–	0%	0%
C=C1C(=O)O[C@@H]2/C=C(/C)C(OC(C)=O)C/C=C(/C=O)CC(OC(=O)/C(C)=C/CO)[C@@H]12 (some centres unmarked) [Eupalinolide O]	1%	9%	–	–
C=C1[C@H](OC(=O)c2ccccc2)C[C@H]2[C@@H](/C=C(\C)C(=O)[C@@]3(OC(C)=O)C[C@H](C)[C@H](OC(=O)c4ccccc4)[C@@H]3[C@H]1OC(C)=O)C2(C)C [Euphorbia Factor L2]	27%	21%	–	–
CC(=O)OC/C1=C\[C@H]2[C@@H](OC(=O)/C=C/c3ccccc3)[C@@H](C)C[C@]2(OC(C)=O)C(=O)/C(C)=C/[C@@H]2[C@H](CC1)C2(C)C [Euphorbia factor L7a]	21%	23%	–	–
CC(=O)OC/C1=C/C[C@H]2[C@@H](/C=C(\C)C(=O)[C@@]3(OC(C)=O)C[C@H](C)[C@H](OC(=O)c4ccccc4)[C@@H]3[C@H]1OC(C)=O)C2(C)C [Euphorbia factor L7b]	14%	37%	–	–
Cl.Cl.O=C(C[C@H]1NCCC[C@@H]1O)Cn1cnc2ccccc2c1=O [Febrifugine (dihydrochloride)]	30%	2%	–	–
Clc1ccc(C(Cn2ccnc2)OCc2ccc(Sc3ccccc3)cc2)c(Cl)c1.O=[N+]([O-])O (centres unmarked) [Fenticonazole (Nitrate)]	45%	13%	–	–
C=CC1=C(C)c2cc3[n-]c(cc4[n-]c(cc5nc(cc1n2)C(C)=C5C=C)c(C)c4CCC(=O)O)c(CCC(=O)O)c3C.[Fe+2] [Ferroheme]	0%	0%	–	–
COc1cc(/C=C/C(=O)[O-])ccc1O.[Na+] [Ferulic acid (sodium)]	10%	0%	–	–
COc1cc(/C=C/C(=O)O)ccc1O [Ferulic acid]	58%	8%	–	–
CCN1C[C@@]2(COC)[C@H]3[C@@H](OC)[C@H]4[C@@H]1[C@]3([C@@H](OC)C[C@H]2OC(C)=O)[C@@H]1C[C@@]2(O)[C@H](OC(=O)c3ccccc3)[C@@H]1[C@]4(OC(C)=O)[C@@H](O)[C@@H]2OC [Flaconitine]	13% and 5%	–	–	–
C[C@@H]1O[C@@H]1P(=O)([O-])[O-].[Ca+2] [Fosfomycin (calcium)]	4%	0%	–	–

From paper PMC11855827, “High-Throughput Screening of Five Compound Libraries for Anthelmintic Activity and Toxicity Leads to the Discovery of Two Flavonoid Compounds” (International Journal of Molecular Sciences, 2025)
